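48-hour exposure; five concentrations; linearly interpolated endpoints. The concentration for 50% growth inhibition is given as GI50.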 Calls of active or inactive are those of the source. No stated cut-off is given here; in the data, active = GI50 up to about 1.1 µM and inactive = higher.
What was measured:
Assay in all cases: NCI-60 cell line screen, 48 h
DLD-1 = system: DLD-1
DMS-114 = system: DMS-114
KM-20L2 = system: KM-20L2
LXFL 529 = system: LXFL 529
M19-MEL = system: M19-MEL
RXF 631 = system: RXF 631
XF498 = system: XF498
BT-549 = system: BT-549
Hs-578T = system: Hs-578T

SMILES | GI50 (DLD-1) | GI50 (DMS-114) | GI50 (KM-20L2) | GI50 (LXFL 529) | GI50 (M19-MEL) | GI50 (RXF 631) | GI50 (XF498) | GI50 (BT-549) | GI50 (Hs-578T)
CC1(CO)OC(n2cc(C(=O)NC(=O)OCc3ccccc3)c(=O)[nH]c2=O)CC1O (stereo unspecified) | > 100 µM (inactive) | > 100 µM (inactive) | > 100 µM (inactive) | > 100 µM (inactive) | > 100 µM (inactive) | > 100 µM (inactive) | > 100 µM (inactive) | – | –
COc1cc(C2c3cc4c(cc3[C@H](OCCN(C)C)[C@@H]3COC(=O)C23)OCO4)cc(OC)c1O (stereo partly specified) | 0.805 µM (active) | – | 0.364 µM (active) | 2.02 µM (inactive) | 0.373 µM (active) | 0.0724 µM (active) | 0.115 µM (active) | 0.499 µM (active) | 1.52 µM (inactive)
O=c1cc(-c2ccccc2)oc2ccc(Cl)cc12 [6-CHLOROFLAVONE] | > 100 µM (inactive) | 49.9 µM (inactive) | > 100 µM (inactive) | > 100 µM (inactive) | > 100 µM (inactive) | – | 37.2 µM (inactive) | > 100 µM (inactive) | > 44.8 µM (inactive)
O=C(O/N=C1/CCCC/C1=C\c1ccccc1)c1ccc(Cl)c(Cl)c1 | 84.5 µM (inactive) | – | 65.3 µM (inactive) | 14.6 µM (inactive) | 68.7 µM (inactive) | 16.8 µM (inactive) | 48.8 µM (inactive) | – | –
COc1cc(C=O)c(-c2c(C=O)ccc3c2OCO3)c(OC)c1OC | > 100 µM (inactive) | > 100 µM (inactive) | > 100 µM (inactive) | > 100 µM (inactive) | 61.4 µM (inactive) | > 100 µM (inactive) | – | – | –
CCc1ccc(NC(=O)NC(=O)c2ccccc2[N+](=O)[O-])cc1Oc1ncc(Cl)cn1 | < 0.0192 µM (active) | 0.0174 µM (active) | 0.0148 µM (active) | < 0.0185 µM (active) | < 0.0275 µM (active) | – | < 0.01 µM (active) | 0.0815 µM (active) | < 0.01 µM (active)
O=NN(CCCl)C(=O)NC1CCCCC1 [LOMUSTINE] | 30.2 µM (inactive) | 45.8 µM (inactive) | 60.3 µM (inactive) | 47.4 µM (inactive) | 53 µM (inactive) | 47.8 µM (inactive) | 64.9 µM (inactive) | 8.24 µM (inactive) | 37.9 µM (inactive)
OCC(O)CNc1ccnc2cc(Cl)ccc12 (stereo unspecified) | > 100 µM (inactive) | > 100 µM (inactive) | > 100 µM (inactive) | > 100 µM (inactive) | > 100 µM (inactive) | – | > 100 µM (inactive) | – | –
Nc1ccc(C(=O)NN2C(=O)C(Cl)C2c2cc(Br)cc(Br)c2O)cc1 (stereo unspecified) | 13.3 µM (inactive) | 4.22 µM (inactive) | 33.3 µM (inactive) | 20.1 µM (inactive) | 11.9 µM (inactive) | – | 14.1 µM (inactive) | – | –
O=C(O/N=C1/CCC/C1=C\c1ccccc1)c1ccc(Cl)c(Cl)c1 | > 100 µM (inactive) | > 100 µM (inactive) | > 100 µM (inactive) | > 100 µM (inactive) | > 100 µM (inactive) | > 100 µM (inactive) | – | – | –
COc1cc(Nc2cnc3cc(N)ccc3n2)cc(OC)c1OC | > 100 µM (inactive) | 65.8 µM (inactive) | > 100 µM (inactive) | 82.4 µM (inactive) | 74.8 µM (inactive) | – | 81.5 µM (inactive) | – | –
COc1ccc(/C=C/C(=O)c2sc(-n3nc(-c4ccccc4)cc3-c3ccccc3)nc2C)cc1 | > 10 µM (inactive) | 31.3 µM (inactive) | 77.4 µM (inactive) | > 10 µM (inactive) | > 10 µM (inactive) | > 10 µM (inactive) | 33.7 µM (inactive) | – | –
CC(C)CCCC(C)C1CCC2C3CC([N+](=O)[O-])=C4CC(O)CCC4(C)C3CCC12C (stereo unspecified) | 19 µM (inactive) | 22 µM (inactive) | 18.5 µM (inactive) | 18.7 µM (inactive) | 27.6 µM (inactive) | – | 22.3 µM (inactive) | – | –
Cc1cc(Cl)ccc1NC(=O)CC/C(CC(=O)C(C)C)=N\NC(=O)C[n+]1ccccc1 | – | > 100 µM (inactive) | > 100 µM (inactive) | > 100 µM (inactive) | – | > 100 µM (inactive) | > 100 µM (inactive) | – | –
C/C(CCn1[nH]c(=O)ccc1=O)=N\N=C(N)N | > 100 µM (inactive) | > 100 µM (inactive) | > 100 µM (inactive) | > 100 µM (inactive) | > 100 µM (inactive) | – | > 100 µM (inactive) | – | –
COc1cccc(/C=C2\N=C(Cl)OC2=O)c1O | > 76.7 µM (inactive) | > 100 µM (inactive) | > 100 µM (inactive) | > 100 µM (inactive) | – | – | > 100 µM (inactive) | – | –
O=S(=O)(SCCCCSS(=O)(=O)c1ccc(Cl)cc1)c1ccc(Cl)cc1 | 13.8 µM (inactive) | 6.67 µM (inactive) | 18 µM (inactive) | 12.2 µM (inactive) | 14.8 µM (inactive) | 8.2 µM (inactive) | – | – | –
O=C(NCc1cccnc1)C1COc2cc(-c3cc(=O)c4ccccc4o3)ccc2O1 (stereo unspecified) | > 100 µM (inactive) | 14.1 µM (inactive) | > 100 µM (inactive) | 4.95 µM (inactive) | 3.93 µM (inactive) | > 56.1 µM (inactive) | 24.6 µM (inactive) | – | –
CC1=C(C(=O)Nc2ccccc2C)C(c2ccc(N(C)C)cc2)C(C(=O)Nc2ccccc2C)=C(C)N1 | 45.9 µM (inactive) | 48.4 µM (inactive) | > 100 µM (inactive) | – | > 100 µM (inactive) | 56.4 µM (inactive) | 22.6 µM (inactive) | – | –
O=c1oc2ccccc2c(O)c1C(C/C(CCN1CCCC1)=N\Nc1ccccc1)c1ccccc1 (stereo unspecified) | 99.5 µM (inactive) | – | > 100 µM (inactive) | 84.5 µM (inactive) | 61.2 µM (inactive) | – | > 100 µM (inactive) | – | –
O=C(c1ccccc1)C(C(=O)c1ccccc1)C1(O)C(=O)c2ccccc2C1=O | – | > 10 µM (inactive) | 34.9 µM (inactive) | 28.6 µM (inactive) | 16.6 µM (inactive) | – | 84.1 µM (inactive) | – | –
CC(C)(C)C1CC[C@H]2c3c([nH]c4ccccc34)[C@H]3C(=O)N(c4ccc(F)cc4)C(=O)[C@H]3[C@H]2C1 (stereo partly specified) | 16.8 µM (inactive) | 17.1 µM (inactive) | 17.5 µM (inactive) | 16 µM (inactive) | 17.1 µM (inactive) | – | 14.2 µM (inactive) | – | –
CN/C=C(/c1ccc(OC)cc1)C(O)c1ccc(OC)c(OC)c1 (stereo unspecified) | > 100 µM (inactive) | > 100 µM (inactive) | > 100 µM (inactive) | – | > 100 µM (inactive) | > 100 µM (inactive) | > 100 µM (inactive) | – | –
